{"source": "patent US9796711B2", "about": "“Substituted pyrazolo[3,4-b]pyridin-6-carboxylic acids and method of use” (AbbVie S.àr.l., priority 2015, dated 2017)", "key": {"ΔF508-CFTR": {"target": "T1, ΔF508-CFTR (Homo sapiens, UniProt P13569, DEL508-508)", "T1 construct": "host or cells: CFBE41o-, doxycycline-inducible", "T1 sequence (P13569 with tags, fused parts or gaps DEL508-508)": "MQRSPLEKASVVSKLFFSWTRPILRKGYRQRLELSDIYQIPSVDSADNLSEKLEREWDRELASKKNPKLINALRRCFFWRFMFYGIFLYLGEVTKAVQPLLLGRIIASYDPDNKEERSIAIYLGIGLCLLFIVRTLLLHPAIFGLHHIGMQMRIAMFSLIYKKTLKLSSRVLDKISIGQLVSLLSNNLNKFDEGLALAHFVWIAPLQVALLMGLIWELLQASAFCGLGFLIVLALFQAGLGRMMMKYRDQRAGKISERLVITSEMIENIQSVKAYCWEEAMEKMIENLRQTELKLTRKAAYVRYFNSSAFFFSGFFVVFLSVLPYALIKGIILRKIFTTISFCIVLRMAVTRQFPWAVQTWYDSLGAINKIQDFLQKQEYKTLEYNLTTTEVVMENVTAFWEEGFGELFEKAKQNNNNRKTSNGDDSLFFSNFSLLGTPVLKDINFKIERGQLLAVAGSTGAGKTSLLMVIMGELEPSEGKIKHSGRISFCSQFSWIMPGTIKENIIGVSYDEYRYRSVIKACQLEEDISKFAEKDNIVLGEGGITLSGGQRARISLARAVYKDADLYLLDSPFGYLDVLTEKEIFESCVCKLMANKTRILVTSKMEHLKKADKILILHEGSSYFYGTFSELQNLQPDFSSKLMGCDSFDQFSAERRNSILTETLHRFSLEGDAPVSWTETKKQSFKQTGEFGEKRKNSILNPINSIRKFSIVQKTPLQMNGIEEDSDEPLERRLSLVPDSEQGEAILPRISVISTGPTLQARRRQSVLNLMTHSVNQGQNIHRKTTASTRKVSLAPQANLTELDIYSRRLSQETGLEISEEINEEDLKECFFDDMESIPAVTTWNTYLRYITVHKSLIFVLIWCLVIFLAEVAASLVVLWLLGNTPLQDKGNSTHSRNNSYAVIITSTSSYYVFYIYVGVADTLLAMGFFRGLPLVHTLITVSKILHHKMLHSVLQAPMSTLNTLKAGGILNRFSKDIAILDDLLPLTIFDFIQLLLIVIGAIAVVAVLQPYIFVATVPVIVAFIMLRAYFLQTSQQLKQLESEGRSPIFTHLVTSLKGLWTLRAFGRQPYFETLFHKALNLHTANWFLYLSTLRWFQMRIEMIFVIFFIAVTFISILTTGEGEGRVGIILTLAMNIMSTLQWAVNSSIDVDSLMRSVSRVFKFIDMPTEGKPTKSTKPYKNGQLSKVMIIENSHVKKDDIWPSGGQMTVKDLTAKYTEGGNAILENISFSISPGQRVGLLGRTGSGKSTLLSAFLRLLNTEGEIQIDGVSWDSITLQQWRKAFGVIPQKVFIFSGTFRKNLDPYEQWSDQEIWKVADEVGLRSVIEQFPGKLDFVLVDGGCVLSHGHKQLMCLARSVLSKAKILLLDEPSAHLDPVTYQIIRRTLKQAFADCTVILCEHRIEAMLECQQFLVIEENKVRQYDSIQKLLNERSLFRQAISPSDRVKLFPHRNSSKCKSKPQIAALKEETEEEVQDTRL", "assay": "CFTR cell surface levels using HRP-tagged ΔF508-CFTR expressing CFBE cells, in the presence of a co-corrector", "assay_type": "cell-based", "conditions": "HRP-tagged ΔF508-CFTR expressing CFBE cells, in the presence of 3 μM co-corrector; for EC50: read-out: EC50", "how_it_was_run": "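Cells were seeded with 0.5 μg/mL doxycycline and held 68 h at 37 °C. Test compounds plus 3 μM co-corrector (final 0.1% DMSO) were then added for 20 h at 33 °C. Washed cells received HRP substrate, and luminescence was normalized between DMSO and 3 μM co-corrector controls.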"}, "CFTR ΔF508": {"target": "T2, CFTR ΔF508 (Homo sapiens, UniProt P13569, DEL508-508)", "T2 construct": "bronchial epithelial cells isolated from CF patients homozygous for the CFTR ΔF508 mutation; McGill University; Asterand; University of North Carolina hAEC-CF; host or cells: primary human bronchial epithelial cells from CF patients homozygous for ΔF508", "T2 sequence (P13569 with tags, fused parts or gaps DEL508-508)": "as above", "assay": "Chronic TECC assay on primary bronchial epithelial cells (corrector, co-corrector and potentiator)", "assay_type": "cell-based", "conditions": "chronic TECC, AUC = full area under the curve upon forskolin stimulation, with co-corrector and potentiator, 24 hours", "method": "Primary Bronchial Epithelial Cells Protocol\nThe TECC (Tranepithelial Clamp Circuit, EP-design) assay measures the functionality of the cystic fibrosis Transmembrane Conductance regulator (CFTR) by measuring the short circuit current (Isc) generated over the basolateral and apical membrane of lung epithelial cells. In TECC the transepithelial potential PD and transepithelial resistance (Rt)) are measured in an open circuit and transformed to Ieq using Ohm's law. 24 Wells can be measured simultaneously allowing a higher throughput compared to Ussing chambers.\nFor this purpose, bronchial epithelial cells isolated from CF patients homozygous for the CFTR ΔF508 mutation (hAEC-CF, Epithelix, Geneva, Switzerland; McGill University, Montreal, Qc; Asterand, Detroit, Mich.; University of North Carolina, Chapel Hill, N.C.) are plated on type IV collagen-coated Transwell® supports (Costar). Human airway epithelia are generated by provision of an air-liquid interface for 21 days to form well-differentiated polarized cultures that resemble in vivo pseudo-stratified ciliated epithelium (Fulcher, M. L., Gabriel, S., Burns, K. A., Yankaskas, J. R., Randell, S. H., 2005. Well-differentiated human airway epithelial cell cultures. Methods Mol. Med. 107, 183-206). The differentiated cells are treated with test corrector compound(s) (corrector alone or in combination with co-corrector, 4-[(2R,4R)-4-({[1-(2,2-difluoro-1,3-benzodioxol-5-yl)cyclopropyl]carbonyl}amino)-7-methoxy-3,4-dihydro-2H-chromen-2-yl]benzoic acid (G924806/A-1618261) (“acute”) or test corrector compounds, co-corrector and potentiator, N-(3-carbamoyl-5,5,7,7-tetramethyl-4,7-dihydro-5H-thieno[2,3-c]pyran-2-yl)-1H-pyrazole-5-carboxamide GLPG1837, (“chronic”) for 24 hours basolaterally to allow sufficient expression of properly folded CFTR protein on the membrane. All compound plates contained negative controls (DMSO) and positive controls (0.15 μM, 4-[(2R,4R)-4-({[1-(2,2-difluoro-1,3-benzodioxol-5-yl)cyclopropyl]carbonyl}amino)-7-(difluoromethoxy)-3,4-dihydro-2H-chromen-2-yl]benzoic acid).\nFor electrophysiological recording of the “chronic” experiments, the human airway epithelia are mounted in the TECC heating plate for electrophysiological measurement and kept at 37° C. The epithelia are bathed in a NaCl-Ringer solution (120 mM NaCl, 25 mM NaHCO3, 1.2 mM CaCl2, 1.2 mM MgCl2, 0.8 mM KH2PO4, 0.8 mM K2HPO4, pH 7.4, 5 mM glucose) on both the basolateral and apical sides. Test compounds (corrector, co-corrector, 4-[(2R,4R)-4-({[1-(2,2-difluoro-1,3-benzodioxol-5-yl)cyclopropyl]carbonyl}amino)-7-(difluoromethoxy)-3,4-dihydro-2H-chromen-2-yl]benzoic acid, and potentiator, N-(3-carbamoyl-5,5,7,7-tetramethyl-4,7-dihydro-5H-thieno[2,3-c]pyran-2-yl)-1H-pyrazole-5-carboxamide), are re-added to the recording solution prior to measurement. Apical amiloride is used to inhibit the endogenous ENaC currents while forskolin is applied on both apical and basolateral side to stimulate CFTR. Measurements are done during a 20 minute timeframe with recordings every 2 minutes. The increase in Ieq is used as a measure for the increased CFTR activity, EC50 values can be generated by measuring impact of different concentrations of compound on Ieq on primary cells, for this purpose each transwell is treated with a different compound concentration. Inhibitor-172, an inhibitor specific for CFTR, is used to test the specificity of the tested compounds. Raw data were normalized to percentage activity values using the equation: 100×(Sample−Negative control)/(Positive control−Negative Control)."}}, "data": [{"compound": "COCC1CCN(c2cc(C(=O)O)nc3c2c(C2CCC2)nn3-c2ccc(F)cc2)CC1", "note": "[compound 657, 3-cyclobutyl-1-(4-fluorophenyl)-4-[4-(methoxymethyl)piperidin-1-yl]-1H-pyrazolo[3,4-b]pyridine-6-carboxylic acid]", "values": [{"measurement": "% Activation", "setting": "ΔF508-CFTR", "value": 543, "unit": "%"}, {"measurement": "EC50", "setting": "ΔF508-CFTR", "value": 306, "unit": "nM"}, {"measurement": "EC50", "setting": "CFTR ΔF508; read-out: EC50 (nM) (AUC)", "value": 78, "unit": "nM"}]}, {"compound": "O=C(O)c1cc(N2CCN(c3ccncc3)CC2)c2c(C3CCC3)nn(C3CCCCC3)c2n1", "note": "[compound 809, 3-cyclobutyl-1-cyclohexyl-4-[4-(pyridin-4-yl)piperazin-1-yl]-1H-pyrazolo[3,4-b]pyridine-6-carboxylic acid]", "values": [{"measurement": "% Activation", "setting": "ΔF508-CFTR", "value": 452.2, "unit": "%"}, {"measurement": "EC50", "setting": "ΔF508-CFTR", "value": 184, "unit": "nM"}, {"measurement": "% Activity at 1 μM (AUC**)", "setting": "CFTR ΔF508; 1 μM", "value": 186.6667, "unit": "%"}]}]}
